One assay concerns SH-SY5Y cells. The assay is described as follows: Cell viability (CCK8) of Aβ42-treated neuronal cells. Type of assay: cell-based. Here is the method: The general procedures used for preparing the transient LPS-Aβ42 complex and the validation of cell cytotoxicity were as follows. First, Aβ42 (100 μM) and LPS (1000 nM, derived from Escherichia coli O111:B4, Sigma-Aldrich) were added to each group medium containing 2.5% dimethyl sulfoxide (DMSO) and then sterilized by using UV light. The medium was then replaced and the remaining mixture was incubated for 72 hours at 37° C. in 5% CO2 humidified air. Cell viability was measured using the CCK8 (Sigma-Aldrich 96992) assay according to the manufacturer's protocol. A 0.22-μm filter (non-pyogenic, Millex®-GV) was used to remove unbound LPS, if needed, in the LPS-Aβ42 solution.
Cell viability. Neural cells were maintained in MEM (Gibco 11095-080) supplemented with 10% FBS and 1×MEM NEAA (Gibco 11140-050). Neural SH-SY5Y cells were plated at a density of 8000 cells per well in 96-well plates (Costar 3599) and allowed to attach overnight at 37° C. in 5% CO2 humidified air. Aβ42 (100 μM), LPS (1000 nM), SAuM (1000 nM), or colistin (1000 nM) were then added to each group medium containing 2.5% dimethyl sulfoxide (DMSO) and sterilized by using UV light. The medium was then replaced every day and the remaining mixture was incubated for 72 hours at 37° C. in 5% CO2 humidified air. Cell viability was measured using the CCK8 (Sigma-Aldrich 96992) assay according to the manufacturer's protocol. A 0.22-μm filter (non-pyogenic, Millex®-GV) was used to remove unbound LPS, if needed, in the LPS-Aβ42 solution.

The target of a further assay is T1, Aβ42 (Homo sapiens, UniProt P05067).
T1 construct: Aβ42 peptides were collected from the entire volume of the cell culture medium and total cell lysates; host or cells: Peptide added to the medium of SH-SY5Y cells; not made by the cells
Description: Western blot of Aβ42 degradation in SH-SY5Y cells. It is filed as cell-based. The note with it: for LPS-induced degradation of Aβ42 in the presence of inhibitor: SH-SY5Y; for Aβ42 degradation in SH-SY5Y cells co-treated with the agent: Western blotting, FIG. 13. On the procedure:
Western Blots. To assess the level of Aβ42 in the cell culture medium, Aβ42 peptides were collected from the entire volume of the cell culture medium and total cell lysates and mixed with protein sample buffer (final 0.1 M Tris-HCl, pH6.8, 10% glycerol, 2% SDS, 1% […], and 0.01% bromophenol blue) for Western blot analysis. The samples of cell mixture were analyzed by SDS-PAGE gel electrophoresis and transferred to a PVDF membrane (Millipore). After blocking with blocking buffer containing 5% w/v nonfat dry milk in PBST (1× phosphate-buffered saline and 0.1% Tween 20) at room temperature for 1 h, the membrane was incubated with a primary antibody diluted in the blocking buffer at 4° C. overnight. After hybridization with primary antibody, the membrane was washed three times with PBST before the addition of an HRP-conjugated secondary antibody against the primary antibody. The membrane was then washed three times with PBST before immunoreactive bands were detected by chemiluminescence (PerkinElmer) or Ponceau S staining (Bersting Technology).

This note sets out measurements from patent US20220152090A1, “METHOD FOR TREATING AMYLOIDOGENIC DISEASE” (priority 2020, published 2022).

T1 sequence (P05067 672-713 limits assumed): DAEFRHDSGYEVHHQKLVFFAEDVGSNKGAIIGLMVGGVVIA

In the case of `Cn1cnc(=N)c2[nH]cnc21` [3MA, methyladenine], the “rescue effect of LPS against Aβ42 neuronal toxicity in the presence of inhibitor” value (from here on “rescue effect of LPS … of inhibitor”) with SH-SY5Y cells is on record as “increasing the cell death”. For the same compound, on Aβ42, the “LPS-induced degradation of Aβ42 in the presence of inhibitor” value (from here on “LPS-induced degradation … of inhibitor”) is listed as “decreasing the degradation of Aβ42”.

On to `CO/C1=C\C(C)=C\[C@@H](C)[C@@H](O)[C@@H](C)C/C(C)=C/C=C/[C@H](OC)[C@@H]([C@@H](C)[C@@H](O)[C@H](C)[C@@]2(O)C[C@@H](O)[C@H](C)[C@@H](C(C)C)O2)OC1=O` [BA, bafilomycin A1], for which, in the assay on SH-SY5Y cells, the “rescue effect of LPS … of inhibitor” value is on record as “increasing the cell death”. Moreover, the “LPS-induced degradation … of inhibitor” value on Aβ42 was “decreasing the degradation of Aβ42”.

As for `CCCCCCCCCCC[C@@H](O)CC(=O)N[C@H]1[C@H](OC[C@H]2O[C@H](OP(=O)(O)O)[C@H](NC(=O)C[C@H](O)CCCCCCCCCCC)[C@@H](OC(=O)C[C@H](O)CCCCCCCCCCC)[C@@H]2O)O[C@H](CO)[C@@H](OP(=O)(O)O)[C@@H]1OC(=O)C[C@H](O)CCCCCCCCCCC` [PIX, 2-deoxy-6-O-(2-deoxy-3-O-[(3R)-3-hydroxytetradecanoyl]-2-{[(3R)-3-hydroxytetradecanoyl]amino}-4-O-phosphono-β-D-glucopyranosyl)-3-O-[(3R)-3-hydroxytetradecanoyl]-2-{[(3R)-3-hydroxytetradecanoyl]amino}-1-O-phosphono-α-D-glucopyranose], the “Aβ42 degradation in SH-SY5Y cells co-treated with the agent” value at Aβ42 is “able to cause Aβ42 degradation”. Same read-out and setting: to `CCCCCCCCCCC[C@@H](O)CC(=O)N[C@H]1[C@H](OC[C@H]2OC(O)[C@H](NC(=O)C[C@H](O)CCCCCCCCCCC)[C@@H](OC(=O)C[C@H](O)CCCCCCCCCCC)[C@@H]2O)O[C@H](CO)[C@@H](OP(=O)(O)O)[C@@H]1OC(=O)C[C@H](O)CCCCCCCCCCC` (stereo partly drawn) [PXI, 2-deoxy-6-O-(2-deoxy-3-O-[(3R)-3-hydroxytetradecanoyl]-2-{[(3R)-3-hydroxytetradecanoyl]amino}-4-O-phosphono-β-D-glucopyranosyl)-3-O-[(3R)-3-hydroxytetradecanoyl]-2-{[(3R)-3-hydroxytetradecanoyl]amino}-D-glucopyranose] belongs “able to cause Aβ42 degradation”. In the case of `CN(C)CCCN1c2ccccc2Sc2ccc(Cl)cc21` [chlorpromazine], the “LPS-induced degradation … of inhibitor” value on Aβ42 is “suppressed”.

As for `O=C(N/N=C/c1ccc(O)c(O)c1)c1cc2ccccc2cc1O` [dynasore], the “LPS-induced degradation … of inhibitor” value at Aβ42 is on record as “suppressed”. Regarding Monophosphoryl lipid A [MPL], on Aβ42, the “Aβ42 degradation in SH-SY5Y cells co-treated with the agent” value was “able to cause Aβ42 degradation”. In the case of colistin, in the assay on SH-SY5Y cells, the “rescue effect of LPS … of inhibitor” value was “abolished”. For methyl-β-cyclodextrin, the “LPS-induced degradation … of inhibitor” value on Aβ42 is “suppressed”.
